In ChEMBL document CHEMBL1201862, “PubChem BioAssay data set” (2004):
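All cell lines were grown in 96-well plates and treated with compound for 48 hours. Here, GI50 denotes the concentration required for 50% inhibition of growth.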 The source made the active and inactive calls. Cut-off read from the data, not from the text of the source: active = GI50 up to about 1.1 µM and inactive = higher. Where a SMILES comes first, the peptide text is derived from it. [ ]: non-standard residue; d: D form. The star is where a group is joined. ξ: configuration not given here. ξF = NC(Cc1ccccc1)C(=O)O; Cbz = O=C(OCc1ccccc1)*; Aib = CC(C)(N)C(=O)O

What was measured:
Assay in all cases: NCI-60 cell line screen, 48 h
[1] = tested on: 786-0
[2] = tested on: ACHN
[3] = tested on: CCRF-CEM
[4] = tested on: COLO 205
[5] = tested on: HOP-62
[6] = tested on: HOP-92
[7] = tested on: HT-29
[8] = tested on: IGROV-1
[9] = tested on: MCF7
[10] = tested on: OVCAR-3
[11] = tested on: OVCAR-8
[12] = tested on: RPMI-8226
[13] = tested on: SF-295
[14] = tested on: SN12C
[15] = tested on: SNB-19
[16] = tested on: TK-10
[17] = tested on: U-251
[18] = tested on: SK-OV-3
[19] = tested on: UACC-62
[20] = tested on: NCI-H522

| Compound | GI50 [1] | GI50 [2] | GI50 [3] | GI50 [4] | GI50 [5] | GI50 [6] | GI50 [7] | GI50 [8] | GI50 [9] | GI50 [10] | GI50 [11] | GI50 [12] | GI50 [13] | GI50 [14] | GI50 [15] | GI50 [16] | GI50 [17] | GI50 [18] | GI50 [19] | GI50 [20] |
| --- | --- | --- | --- | --- | --- | --- | --- | --- | --- | --- | --- | --- | --- | --- | --- | --- | --- | --- | --- | --- |
| CC1CN=C(N(C(=O)Nc2ccc(Cl)c(Cl)c2)c2ccccc2)S1 (stereo not given) | 43.4 µM (inactive) | 57.8 µM (inactive) | 31.9 µM (inactive) | 37.2 µM (inactive) | > 100 µM (inactive) | 38.9 µM (inactive) | 34.8 µM (inactive) | > 100 µM (inactive) | 28.2 µM (inactive) | 68.1 µM (inactive) | 87.1 µM (inactive) | 64.9 µM (inactive) | 75.7 µM (inactive) | 33.6 µM (inactive) | > 100 µM (inactive) | 38.9 µM (inactive) | 53.5 µM (inactive) | – | – | – |
| O=c1cccc2n1C[C@H]1CNC[C@H]2C1 | > 100 µM (inactive) | > 100 µM (inactive) | > 100 µM (inactive) | > 100 µM (inactive) | > 100 µM (inactive) | > 100 µM (inactive) | > 100 µM (inactive) | – | > 100 µM (inactive) | > 100 µM (inactive) | > 100 µM (inactive) | > 100 µM (inactive) | > 100 µM (inactive) | > 100 µM (inactive) | > 100 µM (inactive) | > 100 µM (inactive) | > 100 µM (inactive) | > 100 µM (inactive) | > 100 µM (inactive) | – |
| COC(=O)C(C)(C)NC(=O)C(Cc1ccccc1)NC(=O)C(C)(C)NC(=O)OCc1ccccc1 (stereo not given) (Cbz-[Aib]-[ξF]-[Aib]-OMe) | – | > 100 µM (inactive) | > 100 µM (inactive) | > 100 µM (inactive) | > 100 µM (inactive) | – | > 100 µM (inactive) | > 100 µM (inactive) | > 100 µM (inactive) | > 100 µM (inactive) | > 100 µM (inactive) | > 100 µM (inactive) | > 100 µM (inactive) | – | > 100 µM (inactive) | > 100 µM (inactive) | > 100 µM (inactive) | > 100 µM (inactive) | > 100 µM (inactive) | > 100 µM (inactive) |
| CCCCN=C(OC1C=CCCC1)SC (stereo not given) | > 100 µM (inactive) | > 100 µM (inactive) | > 100 µM (inactive) | > 100 µM (inactive) | > 100 µM (inactive) | 43.4 µM (inactive) | > 100 µM (inactive) | > 100 µM (inactive) | > 100 µM (inactive) | > 100 µM (inactive) | > 100 µM (inactive) | > 100 µM (inactive) | > 100 µM (inactive) | > 100 µM (inactive) | > 100 µM (inactive) | > 100 µM (inactive) | > 100 µM (inactive) | > 100 µM (inactive) | > 100 µM (inactive) | – |
| Cc1cc(NC2=NCCO2)c2c(c1C)CCCC2 | 17.2 µM (inactive) | 10.1 µM (inactive) | 19 µM (inactive) | 17.1 µM (inactive) | 13.3 µM (inactive) | 0.906 µM (active) | 13.9 µM (inactive) | 21.8 µM (inactive) | 14.8 µM (inactive) | – | 25.4 µM (inactive) | 12.6 µM (inactive) | 12.6 µM (inactive) | 22.2 µM (inactive) | 11.2 µM (inactive) | 33.7 µM (inactive) | 18.5 µM (inactive) | 20.4 µM (inactive) | 15.2 µM (inactive) | – |
| CN1COCc2c1ccc1cc3ccc4c(c3nc21)COCN4S(C)(=O)=O | 73.6 µM (inactive) | > 100 µM (inactive) | > 100 µM (inactive) | > 100 µM (inactive) | > 100 µM (inactive) | > 100 µM (inactive) | > 100 µM (inactive) | > 100 µM (inactive) | 0.202 µM (active) | > 100 µM (inactive) | > 100 µM (inactive) | – | > 100 µM (inactive) | > 100 µM (inactive) | > 100 µM (inactive) | > 100 µM (inactive) | > 100 µM (inactive) | > 100 µM (inactive) | > 100 µM (inactive) | > 100 µM (inactive) |
| [N-]=[N+]=NCc1nc(N)c2c3c(sc2n1)CCCC3 | 0.455 µM (active) | 3 µM (inactive) | – | 3.78 µM (inactive) | 3.72 µM (inactive) | 0.402 µM (active) | 1.55 µM (inactive) | 1.2 µM (inactive) | 2.19 µM (inactive) | 2.75 µM (inactive) | 1.51 µM (inactive) | 2.19 µM (inactive) | 7.38 µM (inactive) | 2.74 µM (inactive) | 4.97 µM (inactive) | 12.4 µM (inactive) | 2.47 µM (inactive) | 11.6 µM (inactive) | 5.06 µM (inactive) | – |
| Cc1cc(-n2c(/C=C/c3ccc(Cl)cc3)nc3cc(Cl)ccc3c2=O)on1 | 1.47 µM (inactive) | 7.57 µM (inactive) | > 50 µM (inactive) | 18.9 µM (inactive) | 7.62 µM (inactive) | 16 µM (inactive) | > 50 µM (inactive) | 29.6 µM (inactive) | 18.9 µM (inactive) | 10.1 µM (inactive) | 10.6 µM (inactive) | – | 22 µM (inactive) | 20.5 µM (inactive) | 9.86 µM (inactive) | 12.2 µM (inactive) | 6.4 µM (inactive) | 14.9 µM (inactive) | > 50 µM (inactive) | 23.2 µM (inactive) |
| Fc1ccccc1C1SCc2nc3cc4ccccc4cc3n21 (stereo not given) | 20.5 µM (inactive) | 28.8 µM (inactive) | > 100 µM (inactive) | 86.7 µM (inactive) | > 100 µM (inactive) | – | 43.9 µM (inactive) | 62.5 µM (inactive) | 22.7 µM (inactive) | > 100 µM (inactive) | 36.6 µM (inactive) | > 100 µM (inactive) | 34.4 µM (inactive) | 36.1 µM (inactive) | 32.5 µM (inactive) | 63.8 µM (inactive) | 33.7 µM (inactive) | 71.6 µM (inactive) | 57.9 µM (inactive) | 18.7 µM (inactive) |
| Cc1c2c(n(CCc3ccccc3)c1C)N(C)N=C(C#N)S2(=O)=O | > 100 µM (inactive) | > 100 µM (inactive) | – | – | > 100 µM (inactive) | – | > 100 µM (inactive) | > 100 µM (inactive) | > 100 µM (inactive) | > 100 µM (inactive) | > 100 µM (inactive) | > 100 µM (inactive) | > 100 µM (inactive) | > 100 µM (inactive) | > 100 µM (inactive) | > 100 µM (inactive) | > 100 µM (inactive) | > 100 µM (inactive) | > 100 µM (inactive) | > 100 µM (inactive) |
| C=C[C@H]1CN2CCc3c([nH]c4c([C@@H]5CCCN5C)c(O)ccc34)[C@@H]2C[C@@H]1C[C@H]1c2[nH]c3ccccc3c2CCN1C | 0.437 µM (active) | 1.92 µM (inactive) | 0.188 µM (active) | 1.26 µM (inactive) | 1.31 µM (inactive) | 1.19 µM (inactive) | 1.4 µM (inactive) | 1.31 µM (inactive) | 1.75 µM (inactive) | 1.36 µM (inactive) | 1.69 µM (inactive) | 0.35 µM (active) | 1.01 µM (active) | 1.54 µM (inactive) | 1.3 µM (inactive) | 1.59 µM (inactive) | 1.49 µM (inactive) | 1.62 µM (inactive) | 1.68 µM (inactive) | – |
| O=C1NC(=O)/C(=C/c2ccc(S(=O)(=O)N/N=C/c3ccccc3)cc2)N1 | > 100 µM (inactive) | > 100 µM (inactive) | > 100 µM (inactive) | > 100 µM (inactive) | > 100 µM (inactive) | > 100 µM (inactive) | > 100 µM (inactive) | > 100 µM (inactive) | > 100 µM (inactive) | > 100 µM (inactive) | > 100 µM (inactive) | > 100 µM (inactive) | > 100 µM (inactive) | > 100 µM (inactive) | > 100 µM (inactive) | > 100 µM (inactive) | > 100 µM (inactive) | > 100 µM (inactive) | > 100 µM (inactive) | – |
| CC(C)CC(NC(=O)C(O)C(N)Cc1ccccc1)C(=O)O (stereo not given) | > 100 µM (inactive) | > 100 µM (inactive) | > 100 µM (inactive) | > 100 µM (inactive) | > 100 µM (inactive) | > 100 µM (inactive) | > 100 µM (inactive) | > 100 µM (inactive) | > 100 µM (inactive) | > 100 µM (inactive) | > 100 µM (inactive) | > 100 µM (inactive) | > 100 µM (inactive) | > 100 µM (inactive) | > 100 µM (inactive) | > 100 µM (inactive) | > 100 µM (inactive) | > 100 µM (inactive) | > 100 µM (inactive) | – |
| CC1(C)N=C(C2CCCN2C(=O)OCc2ccccc2)OC1=O (stereo not given) | > 100 µM (inactive) | > 100 µM (inactive) | > 100 µM (inactive) | > 100 µM (inactive) | > 100 µM (inactive) | – | > 100 µM (inactive) | > 100 µM (inactive) | > 100 µM (inactive) | > 100 µM (inactive) | > 100 µM (inactive) | > 100 µM (inactive) | > 100 µM (inactive) | > 100 µM (inactive) | > 100 µM (inactive) | > 100 µM (inactive) | > 100 µM (inactive) | > 100 µM (inactive) | > 100 µM (inactive) | > 100 µM (inactive) |
| CC(=O)O[C@H]1[C@H](OC(=O)CC(C)(O)CC(=O)O)C[C@]2(C)C3=C(CCC2C1(C)C)[C@]1(C)CC[C@H]([C@H]2CC[C@H](C(C)(C)O)OC2O)[C@@]1(C)[C@@H](O)C3 (stereo not given in full) | 18.4 µM (inactive) | 15.8 µM (inactive) | 22 µM (inactive) | – | 16.3 µM (inactive) | 16.9 µM (inactive) | 16.3 µM (inactive) | 17.1 µM (inactive) | 24 µM (inactive) | 16.1 µM (inactive) | 18.7 µM (inactive) | 20.9 µM (inactive) | 18.3 µM (inactive) | 17.5 µM (inactive) | 18.8 µM (inactive) | 30.9 µM (inactive) | 19.8 µM (inactive) | 16.7 µM (inactive) | 19.4 µM (inactive) | – |
